Experimental data published in patent US10933132B2, “Combination of epigenetic factors and bispecific compounds targeting CD33 and CD3 in the treatment of myeloid leukemia” (AMGEN RESEARCH (MUNICH) GMBH, priority 2013, dated 2021).

Experiments:
[1] = target: T1, CD19 B-cell surface antigen and CD3 (Homo sapiens, UniProt P07766+P15391); conditions: patients with B-cell lymphomas and B precursor ALL; cited from earlier work
T1 construct: host or cells: patients (endogenous CD19 on B cells, CD3 epsilon on T cells)

[2] = test system: primary AML cells; assay: Hydroxyurea up-regulation of CD33 on primary AML cells, flow cytometry; format: cell-based
Description: Three primary AML samples were seeded in a 12-well plates at 1×10^6 cells/ml, as previously described (Krupka, Subklewe et. al, Blood 2014). Cells were either left untreated (UT) or treated with 10 μM (H1) or 100 μM (H2) hydroxyurea (Sigma) for three consecutive days (day 0, day 1 and day 2). On day 1-day 3, cells were harvested, counted and analyzed for changes in CD33 surface expression by flow cytometry.

[3] = test system: PL21 AML cells; assay: Hydroxyurea up-regulation of CD33 on AML cell lines, flow cytometry; format: cell-based; conditions: for CD33 MFI Ratio: day 3, untreated 166.9
Description: (§1) AML cell lines HL-60, PL21, OCI-AML3, KG1a and MV4-11 were seeded in 24-well plates at 1×10^6 cells/ml on day 0. Cells were either left untreated (UT) or treated with 10 μM (H1) or 100 μM (H2) hydroxyurea (Sigma) for three consecutive days (day 0, day 1 and day 2). On day 3, cells were harvested, counted and analyzed for changes in CD33 surface expression level by flow cytometry.

[4] = test system: HL-60 AML cells; assay: as above; format: cell-based; conditions: for CD33 MFI Ratio: day 3, untreated 134.9
Description: as §1

[5] = test system: AML cells or macrophages; conditions: incubation of AML cells or macrophages; cited from earlier work
[6] = test system: KG-1a cells; assay: CD33 expression by flow cytometry (PE anti-CD33 P67.6) after pretreatment with epigenetic drug; format: cell-based, human; conditions: 3-day pretreatment, relative to untreated
Description: CD33 expression on parental AML cells and cell lines was quantified by flow cytometry using a phycoerythrin (PE)-conjugated anti-CD33 antibody (clone P67.6; BD Biosciences, San Jose, Calif., USA) (see Walter et al. Blood. 2005; 105(3):1295-1302).

[7] = test system: AML target cells; conditions: co-therapy of lintuzumab and 5-azacytidine; cited from earlier work
[8] = test system: KG-1a cells; assay: AMG 330-induced cytotoxicity with healthy donor T-cells (DAPI, 48 h) after epigenetic drug pretreatment; conditions: 3-day pretreatment, relative to untreated cells
Description: Parental OCI-AML3 and KG-1a cells were either left untreated or pretreated with panobinostat for 72 hours. […] 48 hours later, cell counts were determined and cytotoxicity was assessed with DAPI staining to quantify drug-specific cytotoxicity.
Parental KG-1a cells were either left untreated or pretreated with azacitidine for 72 hours. […] 48 hours later, cell counts were determined and cytotoxicity was assessed with DAPI staining to quantify drug-specific cytotoxicity.
(§2) For the experimental settings mononuclear cells were collected from healthy adult volunteers via leukapheresis, and T cells enriched through magnetic cell sorting (Pan T Cell Isolation Kit II; Miltenyi Biotec, Auburn, Calif.). Thawed cell aliquots were labeled with 3 μM CellVue Burgundy (eBioscience, San Diego, Calif.) according to the manufacturer's instructions.
(§3) For the quantification of compound induces cytotoxicity AML cells were taken during exponential growth and incubated at 37° C. […] After 48 hours, cell numbers and drug-induced cytotoxicity, using 4′,6-diamidino-2-phenylindole (DAPI) to detect non-viable cells, were determined using a LSRII flow cytometer (BD Biosciences, San Jose, Calif.) and analyzed with FlowJo (Tree Star, Ashland, Oreg.). AML cells were identified by forward/side scatter properties and negativity for CellVue Burgundy dye.

[9] = test system: OCI-AML3 cells; assay: as above; format: cell-based, human; conditions: 3-day pretreatment, relative to untreated cells
Description: Parental OCI-AML3 and KG-1a cells were either left untreated or pretreated with panobinostat for 72 hours. […] 48 hours later, cell counts were determined and cytotoxicity was assessed with DAPI staining to quantify drug-specific cytotoxicity. Results are shown as mean±SEM from 3 independent experiments performed in duplicate wells using a single healthy donor as source for exogenous T-cells.
as §2, §3

[10] = target: T2, CD33 (Homo sapiens, UniProt P20138); conditions: cited from earlier work
T2 construct: myeloid differentiation antigen found on AML blasts in most patients; host or cells: AML patients (endogenous CD33 on blasts)
T2 sequence (P20138 18-364): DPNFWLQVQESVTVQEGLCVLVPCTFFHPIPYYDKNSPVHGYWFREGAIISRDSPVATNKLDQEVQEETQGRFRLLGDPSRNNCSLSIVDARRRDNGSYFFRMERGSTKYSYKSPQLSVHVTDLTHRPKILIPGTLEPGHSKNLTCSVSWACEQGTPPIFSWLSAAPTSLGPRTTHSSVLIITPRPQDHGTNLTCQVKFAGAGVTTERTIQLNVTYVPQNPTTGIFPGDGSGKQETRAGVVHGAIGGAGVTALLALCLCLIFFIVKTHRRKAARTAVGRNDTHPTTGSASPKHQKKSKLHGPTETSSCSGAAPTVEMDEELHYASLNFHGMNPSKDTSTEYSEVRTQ

## blinatumomab: bispecific antibody directed at CD19 and the CD3 component of the T-cell receptor complex
[1]
  therapeutic efficacy: therapeutic efficacy was shown

## NC(=O)NO [hydroxyurea, Hydroxyurea]
[2]; primary AML cells patient 2, day 1, H1 = 10 μM hydroxyurea, untreated 3.7
  CD33 MFI Ratio: 4.2
[2]; primary AML cells patient 2, day 1, H2 = 100 μM hydroxyurea, untreated 3.7
  CD33 MFI Ratio: 4.5
[2]; primary AML cells patient 2, day 2, H1 = 10 μM hydroxyurea, untreated 4.8
  CD33 MFI Ratio: 4.2
[2]; primary AML cells patient 2, day 2, H2 = 100 μM hydroxyurea, untreated 4.8
  CD33 MFI Ratio: 5.1
[2]; three primary AML samples, day 1 and day 2 of incubation
  up-regulation of CD33 in patient samples (in words): up-regulation of CD33 in 1 of 3 patient samples
[3]; PL21, H1 = 10 μM hydroxyurea on three consecutive days
  CD33 MFI Ratio: 177.9
[3]; PL21, H2 = 100 μM hydroxyurea on three consecutive days
  CD33 MFI Ratio: 191.8
[3]; PL21 AML cells, 10 and 100 μM
  upregulation of CD33 (in words): upregulation of CD33
[4]; HL-60, H1 = 10 μM hydroxyurea on three consecutive days
  CD33 MFI Ratio: 171.3
[4]; HL-60, H2 = 100 μM hydroxyurea on three consecutive days
  CD33 MFI Ratio: 210.0
[4]; HL-60 AML cells, 10 and 100 μM
  upregulation of CD33 (in words): upregulation of CD33

## Nc1ncn([C@@H]2O[C@H](CO)[C@@H](O)[C@H]2O)c(=O)n1 [azacitidine, 5-azacytidine]
[5]
  CD33 expression: did not affect
[6]
  CD33 expression: significant increase
[7]
  lintuzumab-mediated ADCC: improved

## Cc1[nH]c2ccccc2c1CCNCc1ccc(/C=C/C(=O)NO)cc1 [panobinostat]
[8]
  sensitivity to AMG 330-induced cytotoxicity: modestly more sensitive
[9]
  sensitivity to AMG 330-induced cytotoxicity: modestly more sensitive

## lintuzumab: intact humanized CD33 antibody
[10]; phase III trial, combined with a triple chemotherapy regimen
  survival benefit: no survival benefit
[10]; single-agent phase I and II trial
  clinical response: complete remission in individual patients
